The values below come from US20230149561A1, “Functionalized Nanoparticles and Their Use in Treating Bacterial Infections” (The Board of Trustees of the Leland Stanford Junior …, priority 2019, published 2023).

For one test, the system named is biofilm. The experiment in a line: Biofilm eradication by cell-penetrating peptide alone. In kind it is cell-based. The conditions noted are these: CPP alone, spot plated on LB agar. From the text:
FIG. 20: Cell-penetrating peptide alone cannot eradicate the biofilm; the entire entity of AuNCs was required for biofilm eradication. […] Each spot represents an independent experiment (n=3).

Test [1] deals with P. aeruginosa wild-type PA01 biofilm. Kind of test: MBEC Assay biofilm eradication, 48 h old PA01 biofilm. In kind it is cell-based, Pseudomonas aeruginosa. The conditions noted are these: 24 h treatment. The protocol: (§1) (1-2) Bacteria culture is prepared and dispensed into a 96-well microplate. (3) The peg lid is placed in the bacteria culture and incubated to generate the biofilm. (4) The peg lid is gently rinsed to removed planktonic bacteria and a serial diluted test solution is dispensed into a new 96-well microplate. (5) The pegs covered in biofilm are incubated in the test solutions. (6) The peg lid is again gently rinsed to remove planktonic bacteria and placed in a new 96-well microplate containing recovery media. The peg lid is then sonicated to dislodge the biofilm into the recovery media. (7) Following sonication, the peg lid is replaced with a regular 96-well microplate lid and the plate containing recovery media is incubated. Following incubation, the OD650 absorbance is read on a spectrophotometer. Wells with an OD650 of less than 0.1 is evidence of biofilm eradication. (8) Spot plated on LB agar plates is use to confirm biofilm eradication.
(§2) Then, the minimum biofilm eradication concentration (MBEC) of FLOXIN®Otic against 48 h old PA01 and PA CSOM biofilms were determined using the commercially available MBEC Assay® (Innovotech Inc. Edmonton, Canada). […] Although PA CSOM produced quantitatively less biofilms than PAO1, it had the highest tolerance to ofloxacin. […]

For test [2], the system named is P. aeruginosa clinical otopathogenic strain (PA CSOM) biofilm. Kind of test: MBEC Assay biofilm eradication, 48 h old PA CSOM biofilm. In kind it is cell-based, Pseudomonas aeruginosa. The conditions noted are these: 24 h treatment. The protocol: as §1, §2
For a further test, the system named is PA01. The experiment in a line: Minimum inhibitory concentration against PA01. It is filed as cell-based. The conditions noted are these: Pseudomonas aeruginosa.
A further test has as its system PA CSOM. Kind of test: Minimum inhibitory concentration against PA CSOM. In kind it is cell-based. The conditions noted are these: Pseudomonas aeruginosa.
Test [3] deals with PA CSOM surviving persister cells, logarithmic-phase culture. Kind of test: Ofloxacin sensitivity of resuscitated persister cells in logarithmic-phase culture. In kind it is cell-based, Pseudomonas aeruginosa. The conditions noted are these: ofloxacin 100 μg/mL, 24 h. The protocol:
FIG. 8: Cartoon depicting the flowchart to evaluate ofloxacin sensitivity to persister cells resuscitation in logarithmic-phase culture. (1) Surviving persister cells following the treatment of PA CSOM biofilm with ofloxacin at 3000 μg/mL were replaced in fresh media and incubated at 37° C. and were aerated at 225 r.p.m. (2) Cells in logarithmic-phase (OD600=0.3) were treated with either phosphate-buffered saline (PBS) or ofloxacin (100 μg/mL) for 24 h. (3) following the treatment, cells were plated to determine the number of bacteria per milliliter (CFU/mL).
The drug-refractory state associated with PA CSOM biofilm formation is mediated by tolerance rather than resistance to the antibiotic.

The subject of a further test is PA01 logarithmic culture. Kind of test: Persistence assay, PA01. It is filed as cell-based, Pseudomonas aeruginosa. To be noted: ofloxacin 100 μg/mL, 24 h. The method, then:
(§3) FIGS. 2A-2B: Increasing the fraction of persister cells promotes biofilm tolerance to ofloxacin. FIG. 2A) Susceptibility of surviving persister cells in logarithmic-phase culture. […] Data are presented as mean±s.d. (n=3). FIG. 2B) Comparison of persister cell fraction between PAO1 and PA CSOM in logarithmic-phase culture. Cells of logarithmic-phase were treated with ofloxacin ([…]) for 24 h and then plated for colony counting. The persister fraction was calculated as the ratio between the number of surviving bacteria after ofloxacin treatment compared to that measured in the corresponding untreated control (PBS). Data are presented as mean±s.d. (n=3). Statistical comparisons were done using a two-tailed t-test as indicated. ****p≤0.0001 and **p≤0.01.
(§4) PA01 and PA CSOM cultures were incubated at 37° C. with shaking. 1 mL of culture from each strain was aliquoted when reaching an OD600 of 0.3. Cultures were gently rinsed to remove LB medium and replaced with 1 mL of PBS. Ofloxacin (100 μg/mL) was added to the culture flasks (except for the control flasks). After 24 h incubation, ofloxacin was removed and the number of colony-forming units per milliliter (CFU/mL) was determined. […] The fraction of persister cells was calculated as the ratio of the CFU/mL after ofloxacin treatment to the CFU/mL of the control flasks.

Test [4] has as its system PA CSOM logarithmic culture. The experiment in a line: Persistence assay, PA CSOM. It is filed as cell-based, Pseudomonas aeruginosa. The conditions noted are these: ofloxacin 100 μg/mL, 24 h. The protocol: as §3, §4
Test [5] concerns PA01 (chromosomally encoded luminescent) biofilm. In kind it is cell-based, Pseudomonas aeruginosa. To be noted: 10-day-old PA01 biofilm, 24 hr treatment. The method, then:
Biofilms of PA01 (10-day-old) were grown in the commercially available Calgary Biofilm Device (a 96-well plate)/minimum biofilm eradication concentration (MBEC) assay plate (46). […] Wells were washed with PBS and biofilms were disrupted with sonication and incubated in recovery media for turbidity measurements. A well was considered to have biofilm eradicated if the optical density at 650 nm (OD650) was less than 0.1 after 24 hours.

The test system of test [6] is stationary phase planktonic PA. Kind of test: Killing of stationary phase planktonic PA. It is filed as cell-based, Pseudomonas aeruginosa. The conditions noted are these: 24 hr treatment, AuNC@CPP (16000 μg/mL), OFL (750 μg/mL).
Test [7] relates to Klebsiella pneumoniae CDC 0044. Kind of test: MIC and MBC against Meropenem-resistant Klebsiella. The conditions noted are these: Meropenem-resistant strain, before combination. It is filed as cell-based.

The MIC is the smallest concentration in the dilution series that meets the test's criterion for growth inhibition. The MBC is the smallest concentration meeting the test's criterion for killing.

In brackets after ≈: the same amount, converted by molar mass.

Turning to “Ac-(YGRKKRRQRRR SEQ ID NO:7)-(β-Ala)-(β-Ala)-(β-Ala)-Cys-CONH2 (N-acetyl, three beta-Ala, Cys amide; TAT cell-penetrating peptide) [CPP, cell-penetrating peptide alone, component of AuNC@CPP]”, the “concentration without any biofilm eradication” value with biofilm was above 4000 µg/mL.
In the case of `CC1COc2c(N3CCN(C)CC3)c(F)cc3c(=O)c(C(=O)O)cn1c23` (centres unmarked) [ofloxacin], the entries for the “minimum biofilm eradication concentration (MBEC)” value in [1] and in [2] were 750 µg/mL and above 3000 µg/mL, respectively. Further, the results for the MIC in the test on PA01 and with PA CSOM were 1.6 to 3.3 µg/mL (≈ 4.43 to 9.13 µM) and 52.5 to 100 µg/mL (≈ 145 to 277 µM), respectively. The “decrease in number of bacteria per milliliter (CFU/mL)” value in [3] is reported as 3 log 10. Moreover, the “fraction of persister cells of total bacteria population” value in the test with PA01 logarithmic culture is listed as 0.0005%. The “fraction of persister cells” value in test [4] came to 0.07%. In test [5], this molecule displayed an MBEC of 750 µg/mL. The “remaining CFU” value in test [6] is given as 10^3.
Take `C[C@@H](O)[C@H]1C(=O)N2C(C(=O)O)=C(S[C@@H]3CN[C@H](C(=O)N(C)C)C3)[C@H](C)[C@H]12` [Meropenem]: the MBC in test [7] is above 200 µg/mL.
